“And” between values parts separate entries of the source, which are not always exact repeats. Identical values can stand only once.
What was measured:
[1] = target: H1 PA-PB1 heterodimeric complex (Influenza A virus, UniProt P15659); format: biochemical
PA-C K643A = PA-C K643A (Influenza A virus, UniProt P15659, K643A); format: binding, influenza A virus (H1)

COc1ccc(NC(=S)NCc2cccc3cn[nH]c23)cc1OC [Compound 24, 1-[(1H-Indazol-7-yl)methyl]-3-(3,4-dimethoxyphenyl)thiourea] was tested. Which “PA-PB1 complex co-immunoprecipitated compared to DMSO control” value [1] did it give?
Its value is 53.5% ± 7.9% and 53.5%.

And the “Melting temperature (Tm)” value (PA-C K643A)?
The value was 50.2 ± 1.9 °C.
